Tested on: 699152-130-R-J1-PDC complex spheroid viability
Test: Anticancer human tumor 699152-130-R-J1-PDC patient-derived pancreatic carcinoma cell line growth inhibition [POLQ]
Conditions: for IC50: curve of first compound; for viability, T/C: stronger effect = lower value
In short: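 Complex spheroid viability model combining PDC tumour cells with endothelial (HUVEC) and MSC stromal cells. Novobiocin, ART-558 or RP6685 were tested singly and in combination with standard and investigational anticancer drugs. Each was titrated in half-log steps from near clinical Cmax, or from 10 microM where Cmax was unknown.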

[1] = second compound 0.0316 µM, first compound 0.0316 µM
[2] = second compound 0.0316 µM, first compound 0.1 µM
[3] = second compound 0.0316 µM, first compound 0.316 µM
[4] = second compound 0.0316 µM, first compound 1 µM
[5] = second compound 0.0316 µM, first compound 3.16 µM
[6] = second compound 0.0316 µM, first compound 10 µM
[7] = second compound 0.1 µM, first compound 0.0316 µM
[8] = second compound 0.1 µM, first compound 0.1 µM
[9] = second compound 0.1 µM, first compound 0.316 µM
[10] = second compound 0.1 µM, first compound 1 µM
[11] = second compound 0.1 µM, first compound 3.16 µM
[12] = second compound 0.1 µM, first compound 10 µM
[13] = second compound 0.316 µM, first compound 0.0316 µM
[14] = second compound 0.316 µM, first compound 0.1 µM
[15] = second compound 0.316 µM, first compound 0.316 µM
[16] = second compound 0.316 µM, first compound 1 µM
[17] = second compound 0.316 µM, first compound 3.16 µM
[18] = second compound 0.316 µM, first compound 10 µM
[19] = second compound 1 µM, first compound 0.0316 µM
[20] = second compound 1 µM, first compound 0.1 µM
[21] = second compound 1 µM, first compound 0.316 µM
[22] = second compound 1 µM, first compound 1 µM
[23] = second compound 1 µM, first compound 3.16 µM
[24] = second compound 1 µM, first compound 10 µM
[25] = second compound 3.16 µM, first compound 0.0316 µM
[26] = second compound 3.16 µM, first compound 0.1 µM
[27] = second compound 3.16 µM, first compound 0.316 µM
[28] = second compound 3.16 µM, first compound 1 µM
[29] = second compound 3.16 µM, first compound 3.16 µM
[30] = second compound 3.16 µM, first compound 10 µM
[31] = second compound 10 µM, first compound 0.0316 µM
[32] = second compound 10 µM, first compound 0.1 µM
[33] = second compound 10 µM, first compound 0.316 µM
[34] = second compound 10 µM, first compound 1 µM
[35] = second compound 10 µM, first compound 3.16 µM
[36] = second compound 10 µM, first compound 10 µM
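Also: spheroids exposed to agents for 7 days before viability reading.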
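For viability, T/C in this document: percent of DMSO vehicle control viability so 100% = vehicle and 0% = no viable signal.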

Question: How did the IC50 (second compound 0.0316 µM) turn out when `O=C(Nc1ccc(O)c(NS(=O)(=O)c2ccc(F)cc2)c1)c1ccc(-c2ccccc2)cc1` + Cc1cccc(N(C)C(=O)C2C(O)CCN2c2nc(C)cc(C(F)(F)F)c2C#N)c1 was run?
Answer: > 10000 nM

Question: What about the IC50 (second compound 0.1 µM) of the same molecule?
Answer: > 10000 nM

Question: What about the IC50 (second compound 0.316 µM) of the same molecule?
Answer: > 10000 nM

Question: What about the IC50 (second compound 1 µM) of the same molecule?
Answer: > 10000 nM

Question: What about the IC50 (second compound 3.16 µM) of the same molecule?
Answer: > 10000 nM

Question: What about the IC50 (second compound 10 µM) of the same molecule?
Answer: > 10000 nM

Question: And the viability, T/C [1]?
Answer: 107%

Question: What about the viability, T/C [2] of the same molecule?
Answer: 91.1%

Question: And the viability, T/C [3]?
Answer: 95.9%

Question: What about the viability, T/C [4] of the same molecule?
Answer: 102%

Question: What about the viability, T/C [5] of the same molecule?
Answer: 108%

Question: What about the viability, T/C [6] of the same molecule?
Answer: 78%

Question: And the viability, T/C [7]?
Answer: 110%

Question: And the viability, T/C [8]?
Answer: 103%

Question: And the viability, T/C [9]?
Answer: 100%

Question: What about the viability, T/C [10] of the same molecule?
Answer: 106%

Question: And the viability, T/C [11]?
Answer: 101%

Question: And the viability, T/C [12]?
Answer: 78.7%

Question: And the viability, T/C [13]?
Answer: 111%

Question: What about the viability, T/C [14] of the same molecule?
Answer: 104%

Question: What about the viability, T/C [15] of the same molecule?
Answer: 114%

Question: And the viability, T/C [16]?
Answer: 105%

Question: And the viability, T/C [17]?
Answer: 98.4%

Question: And the viability, T/C [18]?
Answer: 69.3%

Question: What about the viability, T/C [19] of the same molecule?
Answer: 103%

Question: What about the viability, T/C [20] of the same molecule?
Answer: 110%

Question: What about the viability, T/C [21] of the same molecule?
Answer: 111%

Question: What about the viability, T/C [22] of the same molecule?
Answer: 97%

Question: What about the viability, T/C [23] of the same molecule?
Answer: 107%

Question: And the viability, T/C [24]?
Answer: 83.3%

Question: What about the viability, T/C [25] of the same molecule?
Answer: 107%

Question: What about the viability, T/C [26] of the same molecule?
Answer: 112%

Question: And the viability, T/C [27]?
Answer: 111%

Question: What about the viability, T/C [28] of the same molecule?
Answer: 102%

Question: And the viability, T/C [29]?
Answer: 114%

Question: What about the viability, T/C [30] of the same molecule?
Answer: 81.2%

Question: And the viability, T/C [31]?
Answer: 89.1%

Question: And the viability, T/C [32]?
Answer: 96%

Question: What about the viability, T/C [33] of the same molecule?
Answer: 103%

Question: What about the viability, T/C [34] of the same molecule?
Answer: 95.1%

Question: And the viability, T/C [35]?
Answer: 97%

Question: And the viability, T/C [36]?
Answer: 63.7%

Question: For `COc1cccc2c1C(=O)c1c(O)c3c(c(O)c1C2=O)CC(O)(C(=O)CO)CC3OC1CC(N)C(O)C(C)O1` (centres undefined) + COC1C(OC(N)=O)C(O)C(Oc2ccc3c(O)c(NC(=O)c4ccc(O)c(CC=C(C)C)c4)c(=O)oc3c2C)OC1(C)C, which IC50 (second compound 0.0316 µM) is on record?
Answer: 284 nM

Question: And the IC50 (second compound 0.1 µM)?
Answer: 235 nM

Question: And the IC50 (second compound 0.316 µM)?
Answer: 244 nM

Question: What about the IC50 (second compound 1 µM) of the same molecule?
Answer: 225 nM

Question: What about the IC50 (second compound 3.16 µM) of the same molecule?
Answer: 300 nM

Question: What about the IC50 (second compound 10 µM) of the same molecule?
Answer: 304 nM

Question: What about the viability, T/C [1] of the same molecule?
Answer: 82.1%

Question: What about the viability, T/C [2] of the same molecule?
Answer: 92.9%

Question: What about the viability, T/C [3] of the same molecule?
Answer: 43.7%

Question: What about the viability, T/C [4] of the same molecule?
Answer: 24.3%

Question: And the viability, T/C [5]?
Answer: 3.71%

Question: And the viability, T/C [6]?
Answer: 9.4%

Question: What about the viability, T/C [7] of the same molecule?
Answer: 79%

Question: And the viability, T/C [8]?
Answer: 86.8%

Question: What about the viability, T/C [9] of the same molecule?
Answer: 38.5%

Question: And the viability, T/C [10]?
Answer: 27%

Question: And the viability, T/C [11]?
Answer: 3.59%

Question: What about the viability, T/C [12] of the same molecule?
Answer: 13.3%

Question: And the viability, T/C [13]?
Answer: 66.8%

Question: What about the viability, T/C [14] of the same molecule?
Answer: 97.2%

Question: What about the viability, T/C [15] of the same molecule?
Answer: 40.7%

Question: And the viability, T/C [16]?
Answer: 26.1%

Question: What about the viability, T/C [17] of the same molecule?
Answer: 2.4%

Question: What about the viability, T/C [18] of the same molecule?
Answer: 10.4%

Question: And the viability, T/C [19]?
Answer: 69.7%

Question: And the viability, T/C [20]?
Answer: 96.7%

Question: And the viability, T/C [21]?
Answer: 35.9%

Question: And the viability, T/C [22]?
Answer: 27.5%

Question: What about the viability, T/C [23] of the same molecule?
Answer: 2.69%

Question: What about the viability, T/C [24] of the same molecule?
Answer: 12.1%

Question: What about the viability, T/C [25] of the same molecule?
Answer: 73%

Question: And the viability, T/C [26]?
Answer: 88.1%

Question: And the viability, T/C [27]?
Answer: 41.5%

Question: What about the viability, T/C [28] of the same molecule?
Answer: 28%

Question: And the viability, T/C [29]?
Answer: 3.59%

Question: And the viability, T/C [30]?
Answer: 10.6%

Question: And the viability, T/C [31]?
Answer: 76%

Question: And the viability, T/C [32]?
Answer: 95.2%

Question: What about the viability, T/C [33] of the same molecule?
Answer: 48.8%

Question: What about the viability, T/C [34] of the same molecule?
Answer: 21.6%

Question: What about the viability, T/C [35] of the same molecule?
Answer: 6.39%

Question: And the viability, T/C [36]?
Answer: 13.2%

Reference: PubChem BioAssay AID1963835 (Molecular Pharmacology Branch, DTP, NCI, 2024)
